For assay [1], the system named is nuclear active Stat5 in PCs. The assay can be described thus: Immunohistochemistry of active Stat5 in PCs of patients treated with ENZ. The conditions noted are these: biopsies of ENZ-treated PCs. The class given is in vivo, human. The source says:
We recently reported that ENZ induces a hyperactivated feed-forward Jak2-Stat5 signaling loop in PC to promote ENZ-resistant PC growth(50).

A further assay deals with CRPC. The conditions noted are these: cited from earlier work.
Assay [2] relates to CWR22Rv1, CWR22Pc and LAPC4 cells. Kind of assay: PC cell migration, Boyden chamber assay. Format: cell-based. The following applies: Fibronectin chemoattractant. The method, then:
Stat5 was genetically knocked down by lentiviral expression of shStat5 with shCtrl as control for 3 days followed by treatment with ENZ (40 μM; CWR22Pc, CWR22Rv1; 20 μM LAPC-4) vs. DMSO for 10 days. Equivalent numbers of cells were plated to Boyden chamber inserts with Fibronectin as the chemoattractant in the bottom well, and the migrated cells were imaged and counted.
(§1) To evaluate if ENZ induces EMT and migration of PC cells in our hands, three different PC cell lines were treated with ENZ for 12 days and analyzed for the expression of EMT markers (N-cadherin, Vimentin and Twist1) by immunoprecipitation (IP) and western blotting (FIG. 13). […] The ENZ-induced PC cell migration was inhibited by genetic ablation of Stat5 by lentiviral expression of shStat5 vs. shCtrl (FIG. 14). Human CWR22Pc cells, when inoculated to the prostates of immunocompromised mice, form distant metastases in the liver in 8 weeks after orthotopic growth.

Assay [3] deals with Stat5 and Jak2 phosphorylation in PC cells. The assay can be described thus: ENZ-induced Jak2-Stat5 phosphorylation in PC cells (IP and WB). The class given is cell-based.
Procedure: CWR22Pc and LAPC4 PC cells were treated with ENZ or vehicle for the indicated periods of time. Levels of active Stat5 were determined by immunoprecipitation (IP) of Stat5 followed by immunoblotting (WB) for pStat5a/b and total Stat5. Whole cell lysates (WCL) were immunoblotted for pStat3, Stat3 and Actin. […] CWR22Pc and LAPC4 cells were transduced with lentiviral AR shRNA (shAR) or lenti-shCtrl for 3 days followed by treatment with ENZ or vehicle for 7 days at the indicated concentrations.
PC cells were cultured with ENZ or Jak2 inhibitor AZD1480 (800 nM) alone or in combination for 12 days. Expression levels of active Stat5 were determined by IP of Stat5 followed by WB for pStat5a/b and total Stat5. WCLs were immunoblotted for pStat3, Stat3 and Actin. […] Jak2 was suppressed by lentiviral Jak2 shRNA vs. shCtrl in PC cells for 3 days followed by ENZ or vehicle for 7 days. Active Stat5, Stat5 and Jak2 levels were evaluated by IP and WB, as depicted. […] PC cells were treated with ENZ or vehicle for 6 h at the indicated concentrations. Control cells were stimulated with prolactin (Prl) (10 nM) for 20 min as control for cytokine-induced Jak2 phosphorylation. […] Alternatively, PC cells were treated with ENZ or vehicle for 12 days or stimulated with Prl for 20 min at the indicated concentrations. Stat5 and Jak2 were IP:ed and WB:ed for pStat5, pJak2, tot Stat5, and total Jak2.
To investigate whether AR is required for ENZ induction of Stat5 signaling, we inhibited AR expression in CWR22Pc and LAPC4 cells by genetic knockdown using lentiviral expression of AR shRNA (FIG. 9C).
To further assess the involvement of Jak2 in ENZ-induced Stat5 activation, Jak2 was genetically knocked down by lentiviral expression of Jak2 shRNA in CWR22Pc and LAPC4 cells for 3 days followed by ENZ treatment for 7 days.
For assay [4], the system named is EMT markers (N-cadherin, Vimentin, Twist1, E-cadherin) in PC cell lines. The assay can be described thus: EMT marker expression in PC cell lines treated with ENZ. Format: cell-based. The following applies: three PC cell lines, 12 days. Here is the method: Lenti-viral expression of ShStat5 3 days prior to ENZ treatment (at indicated concentrations) blocked ENZ-induction of the EMT markers.
as §1

The source of these data is patent US20220323444A1, “Methods of Treating Advanced Prostate Cancer” (The Medical College of Wisconsin, Inc., priority 2019, published 2022).

Take `CNC(=O)c1ccc(N2C(=S)N(c3ccc(C#N)c(C(F)(F)F)c3)C(=O)C2(C)C)cc1F` [ENZ, 4-(3-(4-cyano-3-(trifluoromethyl)phenyl)-5,5-dimethyl-4-oxo-2-thioxoimidazolidin-1-yl)-2-fluoro-N-methylbenzamide]: in assay [1], the “levels of nuclear active Stat5 versus hormone-naïve PCs” value was “significantly (p<0.0001) elevated”. Further, in the assay on CRPC, the “improvement in survival of PC patients” value was 4-6 months. Besides, the “migration of PC cell lines” value in assay [2] is given as “induces a robust migration”. In addition, in assay [3] (FIG. 9), the “Stat5 phosphorylation in PC cell lines” value is “induced a robust Stat5 phosphorylation”. Also, the “phosphorylation of Jak2 in PC cells” value in assay [3] (FIGS. 10C-10D) was “induced robust phosphorylation of Jak2”. Moreover, in assay [4], the “expression of EMT markers” value is “induced the expression of N-cadherin, Vimentin and Twist1, while suppressing E-cadherin expression”.
